We go through 21 molecules from patent publication US8344010B2, “Fused imidazole derivatives as TRPV3 antagonist” (Glenmark Pharmaceuticals S.A., priority 2008, dated 2013).

Where only a bound is given, the exact number is not on record here.

By inhibition is commonly meant the drop in the measured response relative to a control, in per cent. What is called IC50 is the midpoint of a concentration-inhibition curve.

The assay concerns the target T1, Human TRPV3 (Homo sapiens, UniProt Q8NET8).
T1 construct: expressed in transfected cells; host or cells: CHO cells (selected with G-418)
T1 sequence (Q8NET8 1-790): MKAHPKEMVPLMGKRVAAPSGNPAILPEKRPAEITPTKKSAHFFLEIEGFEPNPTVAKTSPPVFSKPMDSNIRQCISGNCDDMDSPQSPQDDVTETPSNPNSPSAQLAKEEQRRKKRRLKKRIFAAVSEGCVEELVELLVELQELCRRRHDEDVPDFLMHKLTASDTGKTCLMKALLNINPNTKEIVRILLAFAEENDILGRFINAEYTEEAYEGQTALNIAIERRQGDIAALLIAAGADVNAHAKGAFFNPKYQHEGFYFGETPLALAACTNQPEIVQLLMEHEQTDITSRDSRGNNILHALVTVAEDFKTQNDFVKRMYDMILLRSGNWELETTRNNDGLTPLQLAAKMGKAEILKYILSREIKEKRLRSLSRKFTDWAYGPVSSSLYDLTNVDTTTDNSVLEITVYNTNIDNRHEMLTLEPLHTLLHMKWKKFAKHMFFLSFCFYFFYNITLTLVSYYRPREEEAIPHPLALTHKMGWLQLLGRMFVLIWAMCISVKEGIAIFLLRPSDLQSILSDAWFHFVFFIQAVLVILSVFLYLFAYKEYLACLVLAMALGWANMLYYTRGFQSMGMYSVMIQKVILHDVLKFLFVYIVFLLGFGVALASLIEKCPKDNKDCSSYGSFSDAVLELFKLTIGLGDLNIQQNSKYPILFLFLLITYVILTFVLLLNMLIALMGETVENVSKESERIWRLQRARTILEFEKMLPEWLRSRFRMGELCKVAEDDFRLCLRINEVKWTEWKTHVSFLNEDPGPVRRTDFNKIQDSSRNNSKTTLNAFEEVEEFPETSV
The experiment in a line: 45Calcium uptake assay: inhibition of 2-APB induced cellular uptake of radioactive calcium. It counts as cell-based. Conditions: human TRPV3 expressing CHO cells, 2-APB 500 μM; for inhibition at 1 µM: 1 μM test compound, read-out: Percentage Inhibition (1 μM); for inhibition at 10 µM: 10 μM test compound, read-out: Percentage Inhibition (10 μM). An outline of the steps: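 CHO cells expressing human TRPV3 were preincubated with compound for 10 min (0.5% DMSO final), then given 500 μM 2-APB plus 5 μCi/ml 45Ca2+ for 4 min. Lysate radioactivity was counted by scintillation; responses as % of maximal without antagonist, with IC50 by nonlinear regression.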

Consider `COc1cccc(/C=C/c2nc3cc(OC(F)F)ccc3n2-c2ccc(C#N)cn2)c1OC1CCCC1` [Example 59, 6-{2-[(E)-2-(2-[Cyclopentyloxy]-3-methoxyphenyl)vinyl]-5-(difluoromethoxy)-1H-benzimidazol-1-yl}nicotinonitrile], for which the inhibition at 1 µM is 95.8% and the inhibition at 10 µM is 97.9%. For the same molecule, under “class symbol”, the half-maximal inhibitory concentration (IC50) was in the range of 0.05 to 0.1 µM.
`COc1cccc(/C=C/c2nc3ccccc3n2-c2ccc(C#N)cn2)c1OCc1c(F)cccc1F` [Example 17, 6-(2-{(E)-2-[2-(2,6-Difluorobenzyloxy)-3-methoxyphenyl]vinyl}-1H-benzimidazol-1-yl)nicotinonitrile]: the inhibition at 1 µM was found to be 84.3% and the inhibition at 10 µM was 95.8%. The IC50 (class symbol) lay in the range of 0.1 to 0.5 µM.
`COc1cccc(/C=C/c2nc3ccccc3n2-c2ccc(Cl)cn2)c1OC1CCCC1` [Example 3, 1-(5-Chloropyridin-2-yl)-2-{(E)-2-[2-(cyclopentyloxy)-3-methoxyphenyl]vinyl}-1H-benzimidazole]: the inhibition at 1 µM worked out at 62.1% and the inhibition at 10 µM came to 86.6%. Moreover, the half-maximal inhibitory concentration (IC50) (class symbol) is above 0.5 µM.
As to `COc1cccc(/C=C/c2nc3cc(F)c(F)cc3n2-c2ccc(C(=O)O)nn2)c1OC1CCCC1` [Example 74, 6-{2-[(E)-2-(2-Cyclopentyloxy-3-methoxyphenyl)vinyl]-5,6-difluoro-1H-benzimidazol-1-yl}pyridazine-3-carboxylic acid], the inhibition at 1 µM turned out to be 1.7% and the inhibition at 10 µM worked out at 1.51%.
For the molecule `CCCCOc1c(/C=C/c2nc3cccnc3n2-c2ccc(C#N)cn2)cccc1OC` [Example 86, 6-{2-[(E)-2-(2-Butoxy-3-methoxyphenyl)vinyl]-3H-imidazo[4,5-b]pyridin-3-yl}nicotinonitrile], the inhibition at 1 µM is 92.6% and the inhibition at 10 µM stood at 95.2%. Besides, the IC50 (class symbol) was 0.1 to 0.5 µM.
The like results for `CCOc1c(/C=C/c2nc3cc(F)c(F)cc3n2-c2ccc(C#N)cn2)cccc1OC` [Example 63, 6-{2-[(E)-2-(2-Ethoxy-3-methoxyphenyl)vinyl]-5,6-difluoro-1H-benzimidazol-1-yl}nicotinonitrile] were, in that order, 80.8%, 97.7% and 0.1 to 0.5 µM.
Take `COc1cccc(/C=C/c2nc3ccccc3n2-c2ccc(C#N)cn2)c1OCc1ccccc1C#N` [Example 15]: the inhibition at 1 µM is 90.3% and the inhibition at 10 µM is 95.1%. Further, under “class symbol”, the half-inhibitory concentration (IC50) was above 0.5 µM.
Take `COc1cccc(/C=C/c2nc3cc(F)cc(F)c3n2-c2ccc(C#N)cn2)c1OC1CCCC1` [Example 79, 6-{5,7-Difluoro-2-[(E)-2-(2-[cyclopentyloxy]-3-methoxyphenyl)vinyl]-1H-benzimidazol-1-yl}nicotinonitrile]: the inhibition at 1 µM was 93.7% and the inhibition at 10 µM was 96.8%. Further, where the note is “class symbol”, the IC50 fell in the range of 0.05 to 0.1 µM. Also, the IC50 (numeric value) turned out to be 0.0692 µM.
For the molecule `COc1cccc(/C=C/c2nc3cc(C(F)(F)F)ccc3n2-c2ccc(C#N)cn2)c1OC1CCCC1` [Example 57, 6-{2-[(E)-2-(2-[Cyclopentyloxy]-3-methoxyphenyl)vinyl]-5-(trifluoromethyl)-1H-benzimidazol-1-yl}nicotinonitrile], the inhibition at 1 µM was 93% and the inhibition at 10 µM turned out to be 96.1%. Where the note is “class symbol”, the concentration for half-maximal inhibition (IC50) lay within 0.1 to 0.5 µM.
Take `COC(=O)c1ccc(-n2c(/C=C/c3cccc(OC)c3OC3CCCC3)nc3ccccc32)nc1` [Example 30, Methyl 6-(2-{(E)-2-[2-(Cyclopentyloxy)-3-methoxyphenyl]vinyl}-1H-benzimidazol-1-yl)nicotinate]: the inhibition at 1 µM was 16.4% and the inhibition at 10 µM came out at 27.5%.
Consider `COc1cccc(/C=C/c2nc3cc(C)c(C)cc3n2-c2ccc(C#N)cn2)c1OC1CCCC1` [Example 62, 6-{2-[(E)-2-(2-[Cyclopentyloxy]-3-methoxyphenyl)vinyl]-5,6-dimethyl-1H-benzimidazol-1-yl}nicotinonitrile], for which the inhibition at 1 µM worked out at 92% and the inhibition at 10 µM was 95.9%. The IC50 (class symbol) lay in the range of 0.1 to 0.5 µM.
As for `CCCCCOc1c(/C=C/c2nc3cccnc3n2-c2ccc(C#N)cn2)cccc1OC(F)F` [Example 96, 6-(2-{(E)-2-[3-(Difluoromethoxy)-2-pentyloxyphenyl]vinyl}-3H-imidazo[4,5-b]pyridin-3-yl)nicotinonitrile], the inhibition at 1 µM amounted to 97.1% and the inhibition at 10 µM was determined as 98.1%. For the setting “class symbol”, the concentration for half-maximal inhibition (IC50) was 0.05 to 0.1 µM.
For `CCCCCOc1c(/C=C/c2nc3c(F)c(F)c(F)cc3n2-c2ccc(C#N)cn2)cccc1OC` [Example 81, 6-{2-[(E)-2-(2-pentyloxy-3-methoxyphenyl)vinyl]-4,5,6-trifluoro-1H-benzimidazol-1-yl}nicotinonitrile], the inhibition at 1 µM was 90.7% and the inhibition at 10 µM was 95.7%. Further, for the setting “class symbol”, the half-maximal inhibitory concentration (IC50) was below 0.05 µM.
`COc1cccc(/C=C/c2nc3cc(Cl)c(C(F)(F)F)cc3n2-c2ccc(C#N)cn2)c1OC1CCCC1` [Example 71, 6-{5-Chloro-2-[(E)-2-(2-cyclopentyloxy-3-methoxyphenyl)vinyl]-6-(trifluoromethyl)-1H-benzimidazol-1-yl}nicotinonitrile]: the inhibition at 1 µM came to 53.7% and the inhibition at 10 µM amounted to 79.4%.
Consider `COc1cccc(/C=C/c2nc3cc(F)c(F)cc3n2-c2ccc(C#N)nn2)c1OC1CCCC1` [Example 76, 6-{2-[(E)-2-(2-Cyclopentyloxy-3-methoxyphenyl)vinyl]-5,6-difluoro-1H-benzimidazol-1-yl}pyridazine-3-carbonitrile], for which the inhibition at 1 µM is 96.3% and the inhibition at 10 µM is 97%. The IC50 (class symbol) is 0.1 to 0.5 µM.
Consider `COc1cccc(/C=C/c2nc3ccccc3n2-c2ccc(C#N)cn2)c1OCc1ccccc1C(F)(F)F` [Example 16, 6-{2-[(E)-2-(3-Methoxy-2-{[2-(trifluoromethyl)benzyl]oxy}phenyl)vinyl]-1H-benzimidazole-1-yl}nicotinonitrile], for which the inhibition at 1 µM is 97.7% and the inhibition at 10 µM worked out at 99%. Also, for the setting “class symbol”, the half-maximal inhibitory concentration (IC50) lay within 0.05 to 0.1 µM.
For `CCCCCOc1c(/C=C/c2nc3ccc[n+]([O-])c3n2-c2ccc(C#N)cn2)cccc1OC` [Example 88, 6(2-{(E)-2-[3-methoxy-2-(pentyloxy)phenyl]ethenyl}-4-oxido-3H-imidazo[4,5-b]pyridin-3-yl)pyridine-3-carbonitrile], the inhibition at 1 µM was 25.1% and the inhibition at 10 µM came to 71.1%.
In the same order, the values of `COc1cccc(/C=C/c2nc3ccccc3n2-c2ccccn2)c1OCC1CC1` [Example 1, 2-{(E)-2-[2-(Cyclopropylmethoxy)-3-methoxyphenyl]vinyl}-1-pyridin-2-yl-1H-benzimidazole] are 12.8% and 78.5%.
Regarding `COc1ccccc1-n1c(/C=C/c2cccc(OC)c2OC2CCCC2)nc2ccccc21` [Example 32, 2-[(E)-2-(2-Cyclopentyloxy-3-methoxyphenyl)vinyl]-1-(2-methoxyphenyl)-1H-benzimidazole], the inhibition at 1 µM is 9.07% and the inhibition at 10 µM was determined as 0%.
As to `CCCCCOc1c(/C=C/c2nc3cccnc3n2-c2ccc(C#N)cn2)cccc1OC` [Example 87, 6-{2-[(E)-2-(2-Pentyloxy-3-methoxyphenyl)vinyl]-3H-imidazo[4,5-b]pyridin-3-yl}nicotinonitrile], the inhibition at 1 µM was 95.7% and the inhibition at 10 µM is 99.1%. Further, the IC50 (class symbol) lay in the range of 0.1 to 0.5 µM.
With `COc1cccc(/C=C/c2nc3ccccc3n2-c2ncc(C#N)s2)c1OC1CCCC1` [Example 48, 2-{2-[(E)-2-(2-[Cyclopentyloxy]-3-methoxyphenyl)vinyl]-1H-benzimidazol-1-yl}-1,3-thiazole-5-carbonitrile], the inhibition at 1 µM came out at 43.5% and the inhibition at 10 µM turned out to be 75.8%.
